Source: paper PMC5442318, “Hundreds of dual-stage antimalarial molecules discovered by a functional gametocyte screen” (Nature Communications, 2017)
Where two headings read alike, the source gives them in different places.

Columns and labels:
[1] = system: P. falciparum stage V female gametocytes; assay: P. falciparum female gametocyte activation assay (Pf FGAA), 24 h or 48 h preincubation, Pfs25 expression readout; type: cell-based, Plasmodium falciparum NF54; settings: mean, read-out: Gametocytes mean Pf FGAA IC50
In short: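 Purified stage V gametocytes from P. falciparum NF54 gametocyte cultures were exposed to compounds for 24 h or 48 h at 37 °C under 3% O2/5% CO2, then activated by temperature drop plus xanthurenic acid. Activated females were stained with Cy3-anti-Pfs25 (0.5 μg ml^−1) for 24 h at 26 °C and counted by high-content imaging; pIC50 by nonlinear regression.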

[2] = system: P. falciparum stages IV–V gametocytes; assay: Gametocytocidal ATP-depletion assay (gametocyte ATP bioluminescence); type: cell-based, Plasmodium falciparum
In short: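 Purified stage IV–V gametocytes (12,500/well) incubated with compound for 48 h at 37 °C under 3% O2/5% CO2. ATP measured by BacTiter-Glo luminescence as a viability surrogate; hits tested at 2 μM single concentration.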

HepG2 cells = assay: HepG2 cytotoxicity assay; type: cell-based
In short: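 After compound incubation, plates and CellTiter-Glo reagent were brought to room temperature for 30 min. The reagent was then added, and luminescence was read after a 10 min room-temperature stabilization.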

[3] = system: P. falciparum asexual blood stages; settings: read-out: Pf Asexual blood stages XC50, cited from earlier work
[4] = TCAMS data, ref 1 (Gamo et al., 2010)
[5] = P. falciparum female gametocytes
[6] = TCAMS asexual blood stage data, ref 1 (Gamo, F. J. et al., Nature 465, 305-310, 2010)

Structure (SMILES) | IC50 [1] [nM] | Gametocytes mean ATP inhibition at 2µM (%) [2] [%] | HepG2 cells mean TOX50 (HepG2 cells; mean) [µM] | IC50 [3, 4] [nM] | IC50 [1, 5] [nM] | Gametocytes mean ATP inhibition at 2µM [2] [%] | HepG2 cells mean TOX50 (HepG2 cells; HepG2 cells; mean) [µM] | IC50 [3, 6] [nM] | IC50 ([1]; P. falciparum female gametocyte activation assay) [nM] | HepG2 cells mean TOX50 (HepG2 cells; mean; HepG2 cells) [µM]
CC(Cc1ccc(NS(=O)(=O)c2ccc(CC(C)NCCc3cccc(Cl)c3)cc2)cc1)NCCc1cccc(Cl)c1 (stereo not drawn) [TCMDC-139797] | 1840 | -2.49 | 4.37 | 770 | – | – | – | – | – | –
COc1cc2ccccc2c(OC)c1CCNCCCCNCCc1c(OC)cc2ccccc2c1OC.CS(=O)(=O)O [TCMDC-137842] | 1240 | 60.27 | 4.17 | 890 | – | – | – | – | – | –
CN(C)Cc1cccc2nc(-c3csc(Cc4cc(Cl)ccc4OCc4ccccc4)n3)[nH]c12 [TCMDC-132174] | – | – | – | – | 2100 | 47.80 | 13.04 | 1120 | – | –
Cc1c(N=O)cc(C(C)(C)C)c(O)c1C(=O)Nc1ccc([N+](=O)[O-])cc1Cl [TCMDC-142233] | – | – | – | – | – | -7.78 | – | 770 | 1170 | 1.78
CC(C)(C)c1ccc(-c2cc3c(ccc4nc(N)nc(N)c43)[nH]2)cc1 [TCMDC-137977] | 770 | 65.65 | 1.86 | 110 | – | – | – | – | – | –
NCCCCNc1cc(-c2ccnc(Nc3cccc(Cl)c3)n2)ccn1 [TCMDC-134683] | – | – | – | – | 1460 | -0.61 | 0.67 | 280 | – | –
c1ccc2sc(Sc3ncnc4sccc34)nc2c1 [TCMDC-125539] | – | – | – | – | 140 | 69.68 | >100 | 730 | – | –
COc1ccc(-c2ccccc2)cc1NC(=S)NC1CCC(CN2CCC(c3c[nH]c4ccccc34)CC2)CC1 (stereo not drawn) [TCMDC-140182] | 1650 | 21.09 | 5.50 | 650 | – | – | – | – | – | –
CC(Cc1ccc(OCCCCOc2ccccc2)cc1)NCCC1CCCN1C (stereo not drawn) [TCMDC-140017] | 200 | 85.16 | 1.12 | 40 | – | – | – | – | – | –
CC(C)(C)c1ccc(CN2CCC(CNC(=O)c3cc(-c4cccc(C(F)(F)F)c4)cs3)C2)cc1.O=C(O)C(F)(F)F (stereo not drawn) [TCMDC-134442] | – | – | – | – | 950 | -16.04 | 6.39 | 1030 | – | –
Cc1cc(OCCN2CCCCC2)ccc1NC(=O)c1cccc2c(=O)n(Cc3ccc(Cl)cc3)cnc12 [TCMDC-136727] | 1400 | 13.25 | 4.17 | 1050 | – | – | – | – | – | –
Cl.O=C(NCCCCN1CCC(c2ccc3c(c2O)CCCC3)CC1)c1ccc(NC(=O)c2ccc(Cl)cc2)cc1 [TCMDC-138645] | 1490 | -0.21 | 3.80 | 240 | – | – | – | – | – | –
COc1cccc(-c2csc(C(=O)NCC3CCN(Cc4ccc(C(C)(C)C)cc4)C3)c2)c1.O=C(O)C(F)(F)F (stereo not drawn) [TCMDC-134447] | – | – | – | – | 650 | -7.16 | 5.78 | 1180 | – | –
Br.Oc1ccc(CCNCCCCCCNCCc2ccc(Cl)c3ccccc23)cc1O [TCMDC-131271] | – | – | – | – | 2380 | 14.57 | 11.22 | 720 | – | –
CCc1c(CCNCCCCCNCCc2ccc(OC)c(OC)c2CC)ccc(OC)c1OC.Cl [TCMDC-132064] | – | – | – | – | 2050 | 27.40 | 4.68 | 1110 | – | –
Fc1cc(Cl)ccc1Nc1ccnc2cc(-c3ccc(CN4CCOCC4)o3)ccc12 [TCMDC-138393] | 640 | 87.52 | 5.62 | 640 | – | – | – | – | – | –
CC(C)Oc1ccc2ccccc2c1CNCCCCCCNCc1c(OC(C)C)ccc2ccccc12.CS(=O)(=O)O [TCMDC-137965] | 950 | 37.88 | 1.91 | 610 | – | – | – | – | – | –
CC(C)Cn1cc(C2CCN(CCN3CCC(CNC(=O)c4ccc(-c5ccc(C#N)cc5)cc4)CC3)CC2)c2ccccc21 [TCMDC-138849] | 1030 | 8.40 | 4.79 | 790 | – | – | – | – | – | –
Cc1cc2nc(N=C3NC4(c5ccccn5)NC(=Nc5nc6cc(C)c(C)cc6[nH]5)NC4(c4ccccn4)N3)[nH]c2cc1C.O=C(O)C(F)(F)F (stereo not drawn) [TCMDC-139105] | 5340 | 33.60 | 35.91 | 680 | – | – | – | – | – | –
CCn1c(-c2nonc2N)nc2c(-c3cccc(NC(=O)Nc4cccc(Cl)c4)c3)ncc(OCCCN)c21.O=C(O)C(F)(F)F [TCMDC-136193] | 1180 | -8.58 | 80.36 | 940 | – | – | – | – | – | –
COc1cccc(OC)c1CN1CCC(N(C)CCCCCCCCN2CCC(OC(=O)Nc3ccccc3-c3ccccc3)CC2)CC1 [TCMDC-134684] | – | – | – | – | 2260 | 22.14 | 1.93 | 460 | – | –
Cc1cc(I)ccc1Nc1nc2nonc2nc1Nc1ccc(I)cc1C [TCMDC-124083] | – | – | – | – | 1080 | 6.94 | 0.93 | 510 | – | –
N=C(/N=C(/NCCCCCCN/C(=N\C(=N)Nc1ccc(Cl)cc1)N1CCCCC1)N1CCCCC1)Nc1ccc(Cl)cc1 [TCMDC-131811] | – | – | – | – | 7870 | 49.82 | 44.23 | 260 | – | –
COc1cc2nc(N3CCC(CNC(=O)c4ccc(-c5ccc(Cl)cc5)cc4)CC3)nc(N)c2cc1OC [TCMDC-138718] | 890 | 12.29 | 4.22 | 150 | – | – | – | – | – | –
FC(F)(F)c1ccc2[nH]c(-c3cccc(-c4ccc(CNCCN5CCNCC5)cc4)c3)nc2c1.O=C(O)C(F)(F)F [TCMDC-132872] | – | – | – | – | 1790 | -15.41 | 8.81 | 860 | – | –
CC(Nc1cc(-c2ccccn2)nc(-c2ccccn2)n1)c1ccccc1 (stereo not drawn) [TCMDC-125420] | – | – | – | – | 210 | 86.62 | 6.18 | 450 | – | –
CCCOc1ccc(CCNCCCCNCCc2ccc(OCCC)c3ccccc23)c2ccccc12.CS(=O)(=O)O [TCMDC-137952] | 610 | 94.33 | 2.16 | 920 | – | – | – | – | – | –
O=S(=O)(Nc1cccc(F)c1CNCc1ccccn1)c1ccc(Cl)c(Cl)c1 [TCMDC-132598] | – | – | – | – | 1360 | 51.32 | 20.42 | 890 | – | –
COc1cc2ccccc2c(CNCCCCCCNCc2c(OC)c(OC)cc3ccccc23)c1OC.CS(=O)(=O)O [TCMDC-137795] | 670 | 13.93 | 4.62 | 1110 | – | – | – | – | – | –
COc1cc2nc(N3CCC(CNCc4ccc(-c5ccc(C(F)(F)F)cc5)cc4)CC3)nc(N)c2cc1OC [TCMDC-138757] | 100 | 99.68 | 1.43 | 90 | – | – | – | – | – | –
